# Results from patent US7642261B2, “Use of 1-[4-(5-cyanoindol-3-yl)butyl]-4-(2-carbamoyl-benzofuran-5-yl)-piperazine and its physiologically acceptable salts” (Merck Patent GmbH, priority 2002, dated 2010).
# Columns and labels:
# Type in all cases: in vivo
# rats [1] = experiment: Elevated Plus Maze (model for agoraphobia), rats; conditions: 10 mg/kg p.o., 3 min test period
# Procedure: A typical model for Agoraphobia is named Elevated Plus Maze according to S. Pellow, P. Chopin, S. E. File, M. Briley, J. Neurosci. Meth., 1985,14: 145-167.
# The apparatus consists of an X-shaped platform elevated from the floor, with two “open” unprotected arms and two “closed” protected arms, with animals having free access to both arms. The rat or mouse is placed in the centre of the arms, and the number of entires made and the time spent on the open arms is measured in a 3 min test period. Normal animals have very low basal levels, i.e. avoid entering the open arms and stay only a for a very brief period on open arms.
# In rats, a dose of 10 mg/kg p.o. increased number of entries by 56% and time spent on open arms by 76%.
# mice or rats = experiment: Hyperactivity induced by a mixture of dexamphetamine and chlordiazepoxide (model of mania/bipolar disorders); conditions: compared with lithium and valproate
# Excerpt: A typical animal model of mania/bipolar disorders is the hyperactivity induced by a mixture of dexamphetamine and chlordiazepoxide according to A. L. Vale and F. Ratcliffe, Psychopharmacology, 1987; 91: 352-355, and B. J. Cao and N. A. Peng, Eur. J. Pharmacol., 1993; 237: 177-181. The dexamphetamine-chlordiazepoxide mixture induces strong hyperactivity in mice or rats.
# rats [2] = tested on: rats
# Procedure: A typical animal model is the drug discrimination procedure in rats using cocaine as the stimulus cue (e.g. D. M. Wood and M. W. Emmett-Oglesby, J. Pharmacol. Exp. Ther., 1986; 237: 120-125; D. Huang and M. C. Wilson, Pharmacol. Biochem. Behav., 1986; 24: 205-210; J. M. Witkin at al., J. Pharmacol. Exp. Ther, 1991; 257: 706-713). Rats are trained to discriminate 10 mg/kg cocaine from saline in a two-lever discrimination procedure. Compounds which substitute for cocaine produce a dose-dependent increase in cocaine-appropriate responding, i.e. in selecting the cocaine-paired lever.
# 1-[4-(5-cyanoindol-3-yl)butyl]-4-(2-carbamoyl-benzofuran-5-yl)-piperazine or one of its physiologically acceptable salts, in particular 1-[4-(5-cyanoindol-3-yl)butyl]-4-(2-carbamoyl-benzofuran-5-yl)-piperazine hydrochloride, dose-dependently but only partially substituted for cocaine (maximally 60% choise of cocaine-paired lever at 50 mg/kg p.o.).
# mice [3] = experiment: Neophobia model: unfamiliar food in a novel environment; conditions: mice deprived from food for 18 h, oral application, 3 mg/kg
# Procedure: In a typical model for neophobia, mice deprived from food for 18 h are given access to unfamiliar food in a novel environment [P. Soubrie at al., Psychopharmacologica, 1975, 45: 203-210]. 1-[4-(5-cyanoindol-3-yl)butyl]-4-(2-carbamoyl-benzofuran-5-yl)-piperazine or one of its physiologically acceptable salts, in particular 1-[4-(5-cyanoindol-3-yl)butyl]-4-(2-carbamoyl-benzofuran-5-yl)-piperazine hydrochloride, following oral application increased food intake by 21% at the dose of 3 mg/kg.
# mice [4] = experiment: Four Plate Test (model for acute stress indication); conditions: oral dose of 3 mg/kg, five minute test period
# Procedure: A typical model for acute stress indication is the Four Plate Test according to C. Aron, P. Simon, C. Larousse, J. R. Boissier, Neuropharmacology 1971, 10: 459-469.
# The apparatus consists of small box with a floor made up of four metal plates. Each time the mouse crosses from one plate to another, it is given a brief electric footshock reducing the amount of exploratory behavior. The number of punished crossings from one plate to another (i.e. number of shocks accepted by the animal) is recorded during a five minute test period. Normal mice make only few punished crossings, i.e. accept only a few footshocks.
# 1-[4-(5-cyanoindol-3-yl)butyl]-4-(2-carbamoyl-benzofuran-5-yl)-piperazine hydrochloride following and oral dose of 3 mg/kg increased the number of punished crossings by 41%.
# rats [5] = experiment: Social Interaction Test (model for social phobia); conditions: pairs of unfamiliar rats, oral dose of 10 mg/kg, 300 sec total time; vehicle 116 sec
# Procedure: A model for social phobia is the Social Interaction Test according to S. File, J. R. G Hyde, J. Pharm. Pharmacol. 1977, 29: 735-738. Pairs of rats not familiar with each other are placed in an open test box brightly lit (aversive condition), and the number and duration of social contacts during a 5 min test session are recorded.
# 1-[4-(5-cyanoindol-3-yl)butyl]-4-(2-carbamoyl-benzofuran-5-yl)-piperazine or one of its physiologically acceptable salts, in particular 1-[4-(5-cyanoindol-3-yl)butyl]-4-(2-carbamoyl-benzofuran-5-yl)-piperazine hydrochloride, increase the time spent in social interaction. For example, for an oral dose of 10 mg/kg of 1-[4-(5-cyanoindol-3-yl)butyl]-4-(2-carbamoyl-benzofuran-5-yl)-piperazine hydrochloride the pairs of rats unfamiliar to each other spend 144 sec of the 300 sec of total time with social interaction compared to 116 sec for the vehicle treated pairs of rats.
# aged rats = experiment: Morris Water Maze in aged rats; conditions: old rats, tested at day 7, untreated old rats 95 sec, vehicle treated young rats 76 sec
# Excerpt: Typical models for dementia, Alzheimer's disease and multi-infarct are the Passive Avoidance test in rats [S. D. Glick and B. Zimmerberg, Behav. Biol., 1972, 7: 245-254; D. K. Rush, Behav. Neural Biol., 1988, 50: 255-274] and the testing of memory functions in the Morris Water Maze in aged rats [R. Morris, J. Neurosci. Methods, 1984, 11: 47-60, F. H. Gage et al. Neurobiol. Aging. 1984, 5: 43-48].
# The Morris Water Maze consists of a circular water tank (150 cm in diameter) filled with water with an escape platform (15 cm in diameter) 18 cm from the periphery beneath the surface of the water. The water is made opaque rendering the platform invisible. Rats placed in the tank swim around and find the hidden platform accidently after a certain time (latency), and the latency to find the platform is taken as measure. When given further training session to find the platform, rats show reduced latencies from day to day, i.e. remember (learn) the location of the platform. But compared to young rats, aged rats perform less well in learning over days reflecting impaired learning capacity. Drugs effective for dementia and particularly Alzheimers disease improve the earning capacity of aged rats.
# 1-[4-(5-cyanoindol-3-yl)butyl]-4-(2-carbamoyl-benzofuran-5-yl)-piperazine hydrochloride is administered to old rats at oral doses of 1 and 3 mg/kg every day. […]
compound,measurement,setting,value
Cl.N#Cc1ccc2[nH]cc(CCCCN3CCN(c4ccc5oc(C(N)=O)cc5c4)CC3)c2c1 [1-[4-(5-cyanoindol-3-yl)butyl]-4-(2-carbamoyl-benzofuran-5-yl)-piperazine hydrochloride],increase of number of entries on open arms,rats [1],56%
same,increase of time spent on open arms,rats [1],76%
same,inhibition of hyperactivity induced by the dexamphetamine-chlordiazepoxide mixture,mice or rats,to the same degree as do lithium and valproate
same,stimulus drug property by itself (abuse potential),"rats [2]; rat, in vivo",does not serve as a stimulus drug by itself
same,maximal choice of cocaine-paired lever (partial substitution for cocaine),"rats [2]; rats trained on 10 mg/kg cocaine vs saline, 50 mg/kg p.o.",60%
same,increase of food intake,mice [3],21%
same,increase of number of punished crossings,mice [4],41%
same,time spent in social interaction,rats [5],144 s
same,latency to find the platform in the first attempt,aged rats; oral 1 mg/kg every day,77 s
same,latency to find the platform in the first attempt,aged rats; oral 3 mg/kg every day,73 s
